Test results taken from ChEMBL document CHEMBL4507284, “Data for DCP probe BI-1230” (2021).

Assays:
[1] = target: Ribosomal protein S6 kinase alpha-5 (Homo sapiens) (UniProt O75582); conditions: Compound concentration 1000.0 nM
[2] = target: Casein kinase I isoform alpha-like (Homo sapiens) (UniProt Q8N752); conditions: Compound concentration 1000.0 nM
[3] = target: Tyrosine-protein kinase Fgr (Homo sapiens) (UniProt P09769); conditions: Compound concentration 1000.0 nM
[4] = target: Maternal embryonic leucine zipper kinase (Homo sapiens) (UniProt Q14680); conditions: Compound concentration 1000.0 nM
[5] = target: Ribosomal protein S6 kinase alpha-6 (Homo sapiens) (UniProt Q9UK32); conditions: Compound concentration 1000.0 nM
[6] = tested on: Receptor-type tyrosine-protein kinase FLT3 (Homo sapiens), P36888 [D835Y]; conditions: Compound concentration 1000.0 nM
[7] = target: 5'-AMP-activated protein kinase catalytic subunit alpha-2 (Homo sapiens) (UniProt P54646); conditions: Compound concentration 1000.0 nM
[8] = target: Serine/threonine-protein kinase WNK1 (Homo sapiens) (UniProt Q9H4A3); conditions: Compound concentration 1000.0 nM
[9] = target: Serine/threonine-protein kinase SIK2 (Homo sapiens) (UniProt Q9H0K1); conditions: Compound concentration 1000.0 nM
[10] = target: 5-hydroxytryptamine receptor 2B (Homo sapiens) (UniProt P41595); conditions: Compound concentration 10.0 uM
[11] = target: Serine/threonine-protein kinase NIM1 (Homo sapiens) (UniProt Q8IY84); conditions: Compound concentration 1000.0 nM
[12] = target: RAF proto-oncogene serine/threonine-protein kinase (Homo sapiens) (UniProt P04049); conditions: Compound concentration 1000.0 nM
[13] = target: Serine/threonine-protein kinase 35 (Homo sapiens) (UniProt Q8TDR2); conditions: Compound concentration 1000.0 nM
[14] = target: Cyclin-dependent kinase 8 (Homo sapiens) (UniProt P49336); conditions: Compound concentration 1000.0 nM
[15] = target: Receptor tyrosine-protein kinase erbB-4 (Homo sapiens) (UniProt Q15303); conditions: Compound concentration 1000.0 nM
[16] = target: Interferon-induced, double-stranded RNA-activated protein kinase (Homo sapiens) (UniProt P19525); conditions: Compound concentration 1000.0 nM
[17] = target: Tyrosine-protein kinase Blk (Homo sapiens) (UniProt P51451); conditions: Compound concentration 1000.0 nM
[18] = target: Protein kinase C theta type (Homo sapiens) (UniProt Q04759); conditions: Compound concentration 1000.0 nM
[19] = target: Cyclin-dependent kinase 11B (Homo sapiens) (UniProt P21127); conditions: Compound concentration 1000.0 nM
[20] = tested on: Phosphatidylinositol 4,5-bisphosphate 3-kinase catalytic subunit alpha isoform (Homo sapiens), P42336 [E545K]; conditions: Compound concentration 1000.0 nM
[21] = target: Ephrin type-A receptor 4 (Homo sapiens) (UniProt P54764); conditions: Compound concentration 1000.0 nM
[22] = target: Serine/threonine-protein kinase PAK 4 (Homo sapiens) (UniProt O96013); conditions: Compound concentration 1000.0 nM
[23] = target: Ribosomal protein S6 kinase alpha-2 (Homo sapiens) (UniProt Q15349); conditions: Compound concentration 1000.0 nM
[24] = tested on: Tyrosine-protein kinase ABL1 (Homo sapiens), P00519 [F317L]; conditions: Compound concentration 1000.0 nM
[25] = target: Transient receptor potential cation channel subfamily M member 6 (Homo sapiens) (UniProt Q9BX84); conditions: Compound concentration 1000.0 nM
[26] = target: Proto-oncogene tyrosine-protein kinase Src (Homo sapiens) (UniProt P12931); conditions: Compound concentration 1000.0 nM
[27] = target: Serine/threonine-protein kinase 32B (Homo sapiens) (UniProt Q9NY57); conditions: Compound concentration 1000.0 nM
[28] = tested on: Tyrosine-protein kinase ABL1 (Homo sapiens), P00519 [F317I]; conditions: Compound concentration 1000.0 nM
[29] = target: Phosphatidylinositol 3-kinase catalytic subunit type 3 (Homo sapiens) (UniProt Q8NEB9); conditions: Compound concentration 1000.0 nM
[30] = target: Serine/threonine-protein kinase PAK 1 (Homo sapiens) (UniProt Q13153); conditions: Compound concentration 1000.0 nM
[31] = target: Casein kinase I isoform gamma-1 (Homo sapiens) (UniProt Q9HCP0); conditions: Compound concentration 1000.0 nM
[32] = target: RAC-beta serine/threonine-protein kinase (Homo sapiens) (UniProt P31751); conditions: Compound concentration 1000.0 nM
[33] = target: Serine/threonine-protein kinase Nek5 (Homo sapiens) (UniProt Q6P3R8); conditions: Compound concentration 1000.0 nM
[34] = target: Phosphatidylinositol 5-phosphate 4-kinase type-2 beta (Homo sapiens) (UniProt P78356); conditions: Compound concentration 1000.0 nM
[35] = target: Ephrin type-B receptor 3 (Homo sapiens) (UniProt P54753); conditions: Compound concentration 1000.0 nM
[36] = target: Serine/threonine-protein kinase Nek10 (Homo sapiens) (UniProt Q6ZWH5); conditions: Compound concentration 1000.0 nM
[37] = target: Tyrosine-protein kinase receptor TYRO3 (Homo sapiens) (UniProt Q06418); conditions: Compound concentration 1000.0 nM
[38] = tested on: Tyrosine-protein kinase ABL1 (Homo sapiens), P00519 [H396P]; conditions: Compound concentration 1000.0 nM
[39] = target: Serine/threonine-protein kinase Nek3 (Homo sapiens) (UniProt P51956); conditions: Compound concentration 1000.0 nM
[40] = target: Ephrin type-A receptor 3 (Homo sapiens) (UniProt P29320); conditions: Compound concentration 1000.0 nM
[41] = target: Serine/threonine-protein kinase N1 (Homo sapiens) (UniProt Q16512); conditions: Compound concentration 1000.0 nM
[42] = target: Cyclin-dependent kinase 9 (Homo sapiens) (UniProt P50750); conditions: Compound concentration 1000.0 nM
[43] = target: Cyclin-dependent kinase 4 (Homo sapiens) (UniProt P11802); conditions: Compound concentration 1000.0 nM
[44] = tested on: Receptor-type tyrosine-protein kinase FLT3 (Homo sapiens), P36888 [D835V]; conditions: Compound concentration 1000.0 nM
[45] = target: Serine/threonine-protein kinase haspin (Homo sapiens) (UniProt Q8TF76); conditions: Compound concentration 1000.0 nM

Chain of Serine/threonine-protein kinase 35 (Homo sapiens) (Q8TDR2 whole entry): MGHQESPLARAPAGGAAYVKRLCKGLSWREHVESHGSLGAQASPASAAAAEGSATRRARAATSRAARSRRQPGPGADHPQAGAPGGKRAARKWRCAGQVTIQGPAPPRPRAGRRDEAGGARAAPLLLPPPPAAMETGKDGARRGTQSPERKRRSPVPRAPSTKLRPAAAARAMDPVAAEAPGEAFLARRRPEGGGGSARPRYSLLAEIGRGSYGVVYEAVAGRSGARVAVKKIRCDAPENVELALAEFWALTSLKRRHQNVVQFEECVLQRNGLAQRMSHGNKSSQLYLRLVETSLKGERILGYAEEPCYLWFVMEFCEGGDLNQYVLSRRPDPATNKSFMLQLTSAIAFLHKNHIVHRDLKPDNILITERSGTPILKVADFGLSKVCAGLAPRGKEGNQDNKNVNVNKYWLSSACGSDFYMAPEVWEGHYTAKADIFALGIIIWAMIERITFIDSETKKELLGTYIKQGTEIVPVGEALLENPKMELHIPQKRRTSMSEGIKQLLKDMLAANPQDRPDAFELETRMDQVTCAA
Chain of Serine/threonine-protein kinase N1 (Homo sapiens) (Q16512 2-942 limits assumed): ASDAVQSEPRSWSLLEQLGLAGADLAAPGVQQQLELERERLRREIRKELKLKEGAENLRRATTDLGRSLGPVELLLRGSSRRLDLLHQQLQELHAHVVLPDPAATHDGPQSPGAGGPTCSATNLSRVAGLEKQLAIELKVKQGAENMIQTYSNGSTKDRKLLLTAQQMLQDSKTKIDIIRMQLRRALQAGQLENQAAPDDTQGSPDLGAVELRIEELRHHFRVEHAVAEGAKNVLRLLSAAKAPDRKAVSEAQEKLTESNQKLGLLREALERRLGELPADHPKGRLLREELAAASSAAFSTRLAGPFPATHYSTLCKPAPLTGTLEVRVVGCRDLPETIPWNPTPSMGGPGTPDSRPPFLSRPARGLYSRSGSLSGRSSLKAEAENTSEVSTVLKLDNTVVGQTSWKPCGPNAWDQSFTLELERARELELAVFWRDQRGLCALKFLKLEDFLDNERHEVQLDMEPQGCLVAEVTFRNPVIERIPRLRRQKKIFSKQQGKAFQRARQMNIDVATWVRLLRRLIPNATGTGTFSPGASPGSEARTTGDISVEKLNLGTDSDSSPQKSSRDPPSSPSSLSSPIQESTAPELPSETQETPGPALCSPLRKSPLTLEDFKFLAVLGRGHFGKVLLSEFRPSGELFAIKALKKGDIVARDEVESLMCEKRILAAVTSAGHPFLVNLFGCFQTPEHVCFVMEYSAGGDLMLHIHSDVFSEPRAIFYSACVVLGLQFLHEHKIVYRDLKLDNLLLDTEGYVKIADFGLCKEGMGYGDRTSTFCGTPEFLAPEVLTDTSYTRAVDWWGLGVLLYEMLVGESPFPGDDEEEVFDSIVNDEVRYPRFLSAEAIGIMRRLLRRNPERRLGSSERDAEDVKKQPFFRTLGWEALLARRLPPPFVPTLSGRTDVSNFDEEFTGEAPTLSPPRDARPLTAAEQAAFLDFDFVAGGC
Chain of Serine/threonine-protein kinase PAK 1 (Homo sapiens) (Q13153 whole entry, canonical isoform): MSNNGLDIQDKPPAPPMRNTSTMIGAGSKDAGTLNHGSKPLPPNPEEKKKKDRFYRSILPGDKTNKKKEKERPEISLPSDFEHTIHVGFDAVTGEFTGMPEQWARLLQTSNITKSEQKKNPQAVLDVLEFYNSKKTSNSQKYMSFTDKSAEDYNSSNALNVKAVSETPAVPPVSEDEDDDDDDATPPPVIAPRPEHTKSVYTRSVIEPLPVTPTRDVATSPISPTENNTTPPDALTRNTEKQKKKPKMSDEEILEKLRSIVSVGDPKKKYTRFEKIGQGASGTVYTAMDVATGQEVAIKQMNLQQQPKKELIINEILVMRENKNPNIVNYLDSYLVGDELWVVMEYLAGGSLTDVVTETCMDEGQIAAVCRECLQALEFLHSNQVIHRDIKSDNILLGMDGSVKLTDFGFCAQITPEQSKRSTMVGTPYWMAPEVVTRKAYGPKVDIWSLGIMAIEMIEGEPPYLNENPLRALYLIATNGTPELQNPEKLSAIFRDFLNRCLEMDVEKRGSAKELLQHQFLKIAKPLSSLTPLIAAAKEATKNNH
Chain of Phosphatidylinositol 5-phosphate 4-kinase type-2 beta (Homo sapiens) (P78356 whole entry): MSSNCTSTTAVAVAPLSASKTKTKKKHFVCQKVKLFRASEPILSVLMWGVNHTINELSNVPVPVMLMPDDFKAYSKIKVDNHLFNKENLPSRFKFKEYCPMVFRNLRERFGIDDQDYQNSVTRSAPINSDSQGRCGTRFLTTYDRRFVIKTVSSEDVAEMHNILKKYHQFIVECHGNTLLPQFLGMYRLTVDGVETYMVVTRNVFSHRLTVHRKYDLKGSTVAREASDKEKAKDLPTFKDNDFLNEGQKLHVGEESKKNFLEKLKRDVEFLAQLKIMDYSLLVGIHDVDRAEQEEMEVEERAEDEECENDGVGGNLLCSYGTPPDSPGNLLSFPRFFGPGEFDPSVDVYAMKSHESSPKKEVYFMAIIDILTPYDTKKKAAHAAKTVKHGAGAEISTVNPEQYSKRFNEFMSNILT
Chain of RAC-beta serine/threonine-protein kinase (Homo sapiens) (P31751 whole entry): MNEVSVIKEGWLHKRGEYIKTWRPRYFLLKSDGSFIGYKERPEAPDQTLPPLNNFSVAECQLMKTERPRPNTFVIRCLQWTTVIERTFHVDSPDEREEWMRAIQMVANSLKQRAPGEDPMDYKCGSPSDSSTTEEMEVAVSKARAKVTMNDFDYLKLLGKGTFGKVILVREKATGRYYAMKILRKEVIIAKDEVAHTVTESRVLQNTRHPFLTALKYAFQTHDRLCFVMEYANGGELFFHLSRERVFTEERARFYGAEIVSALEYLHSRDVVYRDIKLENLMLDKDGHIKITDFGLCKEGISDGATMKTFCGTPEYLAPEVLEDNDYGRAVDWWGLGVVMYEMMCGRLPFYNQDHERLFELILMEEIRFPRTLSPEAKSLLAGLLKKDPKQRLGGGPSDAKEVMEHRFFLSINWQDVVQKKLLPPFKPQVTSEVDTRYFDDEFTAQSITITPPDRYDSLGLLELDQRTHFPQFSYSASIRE
Chain of Ephrin type-A receptor 3 (Homo sapiens) (P29320 whole entry): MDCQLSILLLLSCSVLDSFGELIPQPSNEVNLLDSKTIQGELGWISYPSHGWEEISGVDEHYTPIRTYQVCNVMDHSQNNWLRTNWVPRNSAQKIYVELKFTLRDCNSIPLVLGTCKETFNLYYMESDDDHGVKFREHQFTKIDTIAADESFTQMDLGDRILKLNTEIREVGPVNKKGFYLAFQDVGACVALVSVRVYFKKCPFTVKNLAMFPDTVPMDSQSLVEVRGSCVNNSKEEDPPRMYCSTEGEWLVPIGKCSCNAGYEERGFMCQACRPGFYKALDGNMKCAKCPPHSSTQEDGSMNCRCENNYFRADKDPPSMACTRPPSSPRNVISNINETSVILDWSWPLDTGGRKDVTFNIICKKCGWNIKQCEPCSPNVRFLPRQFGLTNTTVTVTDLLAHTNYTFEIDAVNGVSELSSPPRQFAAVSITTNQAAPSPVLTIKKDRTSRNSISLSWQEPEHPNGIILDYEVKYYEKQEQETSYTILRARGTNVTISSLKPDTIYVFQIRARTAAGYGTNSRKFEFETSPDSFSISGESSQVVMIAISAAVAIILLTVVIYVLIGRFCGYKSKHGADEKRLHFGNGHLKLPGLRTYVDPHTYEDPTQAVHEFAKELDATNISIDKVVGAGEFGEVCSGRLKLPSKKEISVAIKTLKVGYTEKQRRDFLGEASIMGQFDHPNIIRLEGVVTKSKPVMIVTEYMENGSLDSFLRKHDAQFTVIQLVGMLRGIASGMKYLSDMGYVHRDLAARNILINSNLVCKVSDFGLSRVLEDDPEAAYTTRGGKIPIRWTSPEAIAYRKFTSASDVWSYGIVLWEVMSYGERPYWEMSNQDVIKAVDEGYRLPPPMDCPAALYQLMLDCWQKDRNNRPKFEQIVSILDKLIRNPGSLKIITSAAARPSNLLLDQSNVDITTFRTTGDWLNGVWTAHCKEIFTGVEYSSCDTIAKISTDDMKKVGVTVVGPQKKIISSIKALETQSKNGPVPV
Chain of Tyrosine-protein kinase Fgr (Homo sapiens) (P09769 2-529 limits assumed): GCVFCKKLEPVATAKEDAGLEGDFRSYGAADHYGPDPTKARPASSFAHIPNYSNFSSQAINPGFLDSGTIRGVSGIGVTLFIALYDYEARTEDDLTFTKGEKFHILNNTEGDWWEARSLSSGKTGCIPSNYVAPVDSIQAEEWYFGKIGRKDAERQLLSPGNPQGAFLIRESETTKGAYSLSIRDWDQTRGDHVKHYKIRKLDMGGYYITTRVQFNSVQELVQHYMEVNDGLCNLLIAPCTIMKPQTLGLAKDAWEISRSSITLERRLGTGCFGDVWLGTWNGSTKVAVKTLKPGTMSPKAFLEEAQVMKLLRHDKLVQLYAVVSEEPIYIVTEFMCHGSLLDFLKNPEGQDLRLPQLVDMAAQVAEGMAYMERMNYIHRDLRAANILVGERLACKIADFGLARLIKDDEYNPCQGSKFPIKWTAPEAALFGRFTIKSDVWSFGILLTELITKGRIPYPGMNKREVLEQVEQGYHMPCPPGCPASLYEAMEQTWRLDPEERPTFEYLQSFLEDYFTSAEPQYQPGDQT
Chain of Casein kinase I isoform alpha-like (Homo sapiens) (Q8N752 whole entry, canonical isoform): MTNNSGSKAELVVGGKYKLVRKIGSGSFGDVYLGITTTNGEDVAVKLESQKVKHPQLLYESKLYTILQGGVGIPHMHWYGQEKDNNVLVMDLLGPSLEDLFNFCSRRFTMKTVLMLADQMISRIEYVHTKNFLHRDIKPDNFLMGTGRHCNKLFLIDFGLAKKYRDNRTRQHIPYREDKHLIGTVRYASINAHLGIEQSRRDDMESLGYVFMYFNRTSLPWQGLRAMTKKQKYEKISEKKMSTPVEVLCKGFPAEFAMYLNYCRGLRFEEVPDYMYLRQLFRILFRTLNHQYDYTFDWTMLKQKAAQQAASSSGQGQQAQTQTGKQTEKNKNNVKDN

COc1ccc2c(O[C@@H]3C[C@H]4C(=O)N[C@]5(C(=O)O)CC5/C=C\CCCCC[C@H](NC(=O)OC5CCCC5)C(=O)N4C3)cc(-c3csc(NC(=O)C(C)C)n3)nc2c1C (stereo not given in full) [BI 1230]
residual activity [1]: 100%
residual activity [2]: 100%
residual activity [3]: 100%
residual activity [4]: 44%
residual activity [5]: 92%
residual activity [6]: 87%
residual activity [7]: 87%
residual activity [8]: 100%
residual activity [9]: 100%
inhibition [10]: 0.15%
residual activity [11]: 83%
residual activity [12]: 95%
residual activity [13]: 100%
residual activity [14]: 68%
residual activity [15]: 100%
residual activity [16]: 100%
residual activity [17]: 97%
residual activity [18]: 100%
residual activity [19]: 99%
residual activity [20]: 68%
residual activity [21]: 100%
residual activity [22]: 99%
residual activity [23]: 100%
residual activity [24]: 75%
residual activity [25]: 100%
residual activity [26]: 100%
residual activity [27]: 100%
residual activity [28]: 76%
residual activity [29]: 100%
residual activity [30]: 100%
residual activity [31]: 94%
residual activity [32]: 89%
residual activity [33]: 98%
residual activity [34]: 100%
residual activity [35]: 100%
residual activity [36]: 79%
residual activity [37]: 100%
residual activity [38]: 77%
residual activity [39]: 76%
residual activity [40]: 97%
residual activity [41]: 100%
residual activity [42]: 83%
residual activity [43]: 100%
residual activity [44]: 79%
residual activity [45]: 97%

O=C(N[C@H]1CCCCC/C=C\C2C[C@@]2(C(=O)O)NC(=O)[C@@H]2C[C@@H](Oc3ccncc3)CN2C1=O)OC1CCCC1 (stereo not given in full) [BI 1675]
residual activity [1]: 78%
residual activity [2]: 100%
residual activity [3]: 100%
residual activity [4]: 84%
residual activity [5]: 60%
residual activity [6]: 98%
residual activity [7]: 71%
residual activity [8]: 90%
residual activity [9]: 100%
inhibition [10]: 1.85%
residual activity [11]: 82%
residual activity [12]: 100%
residual activity [13]: 100%
residual activity [14]: 66%
residual activity [15]: 100%
residual activity [16]: 100%
residual activity [17]: 63%
residual activity [18]: 100%
residual activity [19]: 100%
residual activity [20]: 95%
residual activity [21]: 93%
residual activity [22]: 99%
residual activity [23]: 75%
residual activity [24]: 100%
residual activity [25]: 98%
residual activity [26]: 100%
residual activity [27]: 99%
residual activity [28]: 96%
residual activity [29]: 100%
residual activity [30]: 89%
residual activity [31]: 88%
residual activity [32]: 85%
residual activity [33]: 91%
residual activity [34]: 100%
residual activity [35]: 100%
residual activity [36]: 81%
residual activity [37]: 100%
residual activity [38]: 81%
residual activity [39]: 100%
residual activity [40]: 86%
residual activity [41]: 100%
residual activity [42]: 91%
residual activity [43]: 100%
residual activity [44]: 92%
residual activity [45]: 100%
